Legend:
N-87 cancer cells = test: Inhibition of N-87 cell proliferation (CellTiter-Glo); assay type: cell-based; details: N-87 cells, 72 hours
Description: N-87 cancer cells were cultured by using RPMI-1640 medium with 10% FBS. The N-87 cancer cells were seeded to a white clear bottom 96 well plate (Corning) at 5,000 cells per well 24 hours before the […] cancer cells were treated with Example Compounds. Example Compounds were diluted in dimethylsulfoxide (5-fold diluted, total 11 concentrations) and 0.5 μL each was injected so that the final concentration was […]. For the measurement of living cells, the cells were stored at room temperature for 10 minutes using the CellTiter-Glo cell viability reagent (Promega) after 72 hours after the treatment of Example Compounds, and then the luminescence intensity was measured using the reader (SynergyNeo, Biotek).
The result value was calculated as a cell growth rate (%) compared to a control group. Graphs were plotted and GI50 values were calculated using the GraphPad Prism version 8.0 program, and the results are shown in Table 18 below.

BT-474 cancer cells = test: Inhibition of BT-474 cell proliferation (CellTiter-Glo); assay type: cell-based; details: Homo sapiens, BT-474 cells, 120 hours
Method in brief: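 BT-474 cells in RPMI-1640 with 20% FBS, seeded 48 h before dosing with 11 three-fold dilutions (final 0.2 nM to 10 μM). Viability read by CellTiter-Glo luminescence 120 h after treatment, triplicate tests. GI50 derived from growth rate (%) versus control.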

HER2 enzyme = target: T1, HER2 enzyme (Homo sapiens, UniProt P04626); test: Biochemical kinase assay for HER2 (Reaction Biology Corp.); details: ATP 10 μM, 3-fold dilution from 10 μM
T1 construct: purchased Reaction Biology Corp. (San Diego, USA); outsourced assay service
Description: A biochemical kinase assay for HER2 was conducted through Reaction Biology Corp. (San Diego, USA).

T1 sequence (P04626 23-1255): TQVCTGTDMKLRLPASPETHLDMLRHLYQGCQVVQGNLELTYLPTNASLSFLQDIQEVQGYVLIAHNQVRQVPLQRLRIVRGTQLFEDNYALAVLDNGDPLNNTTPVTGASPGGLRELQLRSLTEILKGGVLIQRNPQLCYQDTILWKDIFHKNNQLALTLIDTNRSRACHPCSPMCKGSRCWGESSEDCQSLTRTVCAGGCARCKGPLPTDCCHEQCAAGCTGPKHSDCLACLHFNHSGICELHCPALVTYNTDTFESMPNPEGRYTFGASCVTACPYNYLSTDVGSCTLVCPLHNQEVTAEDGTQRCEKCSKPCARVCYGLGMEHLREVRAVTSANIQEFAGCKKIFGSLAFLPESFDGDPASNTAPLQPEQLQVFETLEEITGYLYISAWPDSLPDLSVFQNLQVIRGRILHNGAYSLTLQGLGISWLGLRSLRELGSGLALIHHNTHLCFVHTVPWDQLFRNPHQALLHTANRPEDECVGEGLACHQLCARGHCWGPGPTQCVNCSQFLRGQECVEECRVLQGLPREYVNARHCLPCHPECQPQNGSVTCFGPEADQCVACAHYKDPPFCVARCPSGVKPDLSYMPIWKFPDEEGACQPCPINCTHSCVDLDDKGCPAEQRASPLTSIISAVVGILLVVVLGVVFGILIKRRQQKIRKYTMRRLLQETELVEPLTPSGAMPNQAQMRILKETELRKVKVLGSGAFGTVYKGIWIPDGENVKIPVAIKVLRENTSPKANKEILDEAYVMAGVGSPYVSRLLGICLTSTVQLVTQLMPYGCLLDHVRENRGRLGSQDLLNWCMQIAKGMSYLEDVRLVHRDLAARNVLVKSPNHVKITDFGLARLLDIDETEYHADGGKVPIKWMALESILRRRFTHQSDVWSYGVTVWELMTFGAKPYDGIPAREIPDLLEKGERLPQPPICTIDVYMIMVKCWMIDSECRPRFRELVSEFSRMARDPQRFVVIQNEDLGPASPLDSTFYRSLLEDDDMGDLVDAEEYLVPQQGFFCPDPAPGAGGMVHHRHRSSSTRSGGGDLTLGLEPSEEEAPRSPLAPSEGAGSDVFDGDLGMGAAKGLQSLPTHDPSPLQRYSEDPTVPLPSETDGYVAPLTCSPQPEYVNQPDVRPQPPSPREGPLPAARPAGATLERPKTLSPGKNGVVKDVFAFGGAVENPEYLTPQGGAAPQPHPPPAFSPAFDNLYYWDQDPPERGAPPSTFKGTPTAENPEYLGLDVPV

Compound	GI50 (N-87 cancer cells)	GI50 (BT-474 cancer cells)	IC50 (HER2 enzyme)
C=CC(=O)Nc1cc2c(Nc3cc(Cl)c(Oc4ccccn4)cc3OC)ncnc2cc1OC [Example 24, N-(4-((5-chloro-2-methoxy-4-(pyridin-2-yloxy)phenyl)amino)-7-methoxyquinazolin-6-yl)acrylamide]	≤ 50 nM	≤ 50 nM	
COc1cc2ncnc(Nc3cc(Cl)c(Oc4cccc(F)c4)cc3OC)c2cc1NC(=O)/C=C/[C@H]1CCCN1 [Example 31, (R,E)-N-(4-((5-chloro-4-(3-fluorophenoxy)-2-methoxyphenyl)amino)-7-methoxyquinazolin-6-yl)-3-(pyrrolidin-2-yl)acrylamide]	≤ 50 nM	≤ 50 nM	
COc1cc2ncnc(Nc3cc(Cl)c(Oc4ccn5ncnc5c4)cc3OC)c2cc1NC(=O)/C=C/[C@H]1CCCN1C [Example 32, (R,E)-N-(4-((4-([1,2,4]triazolo[1,5-a]pyridin-7-yloxy)-5-chloro-2-methoxyphenyl)amino)-7-methoxyquinazolin-6-yl)-3-(1-methylpyrrolidin-2-yl)acrylamide]	≤ 50 nM	≤ 50 nM	
COc1cc2ncnc(Nc3ccc(Oc4ccn5ncnc5c4)cc3OC)c2cc1NC(=O)/C(F)=C\[C@H]1CCCN1C [Example 46, (R,E)-N-(4-((4-([1,2,4]triazolo[1,5-a]pyridin-7-yloxy)-2-methoxyphenyl)amino)-7-methoxyquinazolin-6-yl)-2-fluoro-3-(1-methylpyrrolidin-2-yl)acrylamide]	≤ 50 nM	≤ 50 nM	
COc1cc2ncnc(Nc3cc(C)c(Oc4ccc5ncn(C)c5c4)cc3OC)c2cc1NC(=O)/C(F)=C\[C@H]1CCCN1C [Example 55, (R,E)-2-fluoro-N-(7-methoxy-4-((2-methoxy-5-methyl-4-((1-methyl-1H-benzo[d]imidazol-6-yl)oxy)phenyl)amino)quinazolin-6-yl)-3-(1-methylpyrrolidin-2-yl)acrylamide]	≤ 50 nM	≤ 50 nM	
COc1cc2ncnc(Nc3cc(C)c(Oc4ccccc4)cc3OC)c2cc1NC(=O)/C(F)=C\[C@H]1CCCN1C [Example 74, (R,E)-2-fluoro-N-(7-methoxy-4-((2-methoxy-5-methyl-4-phenoxyphenyl)amino)quinazolin-6-yl)-3-(1-methylpyrrolidin-2-yl)acrylamide]	≤ 50 nM	≤ 50 nM	
COc1cc(Oc2ccn3ncnc3c2)c(C)cc1Nc1ncnc2ccc(NC(=O)/C(F)=C\[C@H]3CCCN3C)cc12 [Example 91, (R,E)-N-(4-((4-([1,2,4]triazolo[1,5-a]pyridin-7-yloxy)-2-methoxy-5-methylphenyl)amino)quinazolin-6-yl)-2-fluoro-3-(1-methylpyrrolidin-2-yl)acrylamide]	≤ 50 nM	≤ 50 nM	
COc1cc(Oc2ccn3ncnc3c2)c(C)cc1Nc1ncnc2ccc(NC(=O)/C(F)=C/[C@H]3CCCN3C)cc12 [Example 92, (R,Z)—N-(4-((4-([1,2,4]triazolo[1,5-a]pyridin-7-yloxy)-2-methoxy-5-methylphenyl)amino)quinazolin-6-yl)-2-fluoro-3-(1-methylpyrrolidin-2-yl)acrylamide]		≤ 50 nM	≤ 50 nM

Next, values leading:

GI50 (N-87 cancer cells)	GI50 (BT-474 cancer cells)	IC50 (HER2 enzyme)	Compound
≤ 50 nM	≤ 50 nM		COc1cc2ncnc(Nc3cc(C)c(Oc4ccn5ncnc5c4)cc3OC)c2cc1NC(=O)/C(F)=C\[C@H]1CCCN1C [Example 41, (R,E)-N-(4-((4-([1,2,4]triazolo[1,5-a]pyridin-7-yloxy)-2-methoxy-5-methylphenyl)amino)-7-methoxyquinazolin-6-yl)-2-fluoro-3-(1-methylpyrrolidin-2-yl)acrylamide]
≤ 50 nM	≤ 50 nM		COc1cc2ncnc(Nc3cc(Cl)c(Oc4ccn5ncnc5c4)cc3OC)c2cc1NC(=O)/C(F)=C\[C@H]1CCCN1C [Example 51, (R,E)-N-(4-((4-([1,2,4]triazolo[1,5-a]pyridin-7-yloxy)-5-chloro-2-methoxyphenyl)amino)-7-methoxyquinazolin-6-yl)-2-fluoro-3-(1-methylpyrrolidin-2-yl)acrylamide]
≤ 50 nM	≤ 50 nM		CCN1CCC[C@@H]1/C=C(/F)C(=O)Nc1cc2c(Nc3cc(C)c(Oc4ccn5ncnc5c4)cc3OC)ncnc2cc1OC [Example 52, (R,E)-N-(4-((4-([1,2,4]triazolo[1,5-a]pyridin-7-yloxy)-2-methoxy-5-methylphenyl)amino)-7-methoxyquinazolin-6-yl)-3-(1-ethylpyrrolidin-2-yl)-2-fluoroacrylamide]
	≤ 50 nM	≤ 50 nM	COc1cc2ncnc(Nc3cc(C(F)(F)F)c(Oc4ccn5ncnc5c4)cc3OC)c2cc1NC(=O)/C(F)=C/[C@H]1CCCN1C [Example 54, (R,Z)—N-(4-((4-([1,2,4]triazolo[1,5-a]pyridin-7-yloxy)-2-methoxy-5-(trifluoromethyl)phenyl)amino)-7-methoxyquinazolin-6-yl)-2-fluoro-3-(1-methylpyrrolidin-2-yl)acrylamide]
≤ 50 nM	≤ 50 nM		COc1cc2ncnc(Nc3cc(C)c(Oc4ccn5ccnc5c4)cc3OC)c2cc1NC(=O)/C(F)=C/[C@H]1CCCN1C [Example 76, (R,Z)-2-fluoro-N-(4-((4-(imidazo[1,2-a]pyridin-7-yloxy)-2-methoxy-5-methylphenyl)amino)-7-methoxyquinazolin-6-yl)-3-(1-methylpyrrolidin-2-yl)acrylamide]
≤ 50 nM	≤ 50 nM		CCOc1cc2ncnc(Nc3cc(C)c(Oc4ccn5ncnc5c4)cc3OC)c2cc1NC(=O)/C(F)=C\[C@H]1CCCN1C [Example 93, (R,E)-N-(4-((4-([1,2,4]triazolo[1,5-a]pyridin-7-yloxy)-2-methoxy-5-methylphenyl)amino)-7-ethoxyquinazolin-6-yl)-2-fluoro-3-(1-methylpyrrolidin-2-yl)acrylamide]
≤ 50 nM	≤ 50 nM		COCCOc1cc2ncnc(Nc3cc(C)c(Oc4ccn5ncnc5c4)cc3OC)c2cc1NC(=O)/C(F)=C/[C@H]1CCCN1C [Example 95, (R,Z)—N-(4-((4-([1,2,4]triazolo[1,5-a]pyridin-7-yloxy)-2-methoxy-5-methylphenyl)amino)-7-(2-methoxyethoxy)quinazolin-6-yl)-2-fluoro-3-(1-methylpyrrolidin-2-yl)acrylamide]
≤ 50 nM	≤ 50 nM		CCOc1cc(Oc2ccn3ncnc3c2)c(C)cc1Nc1ncnc2cc(OC)c(NC(=O)/C(F)=C\[C@H]3CCCN3C)cc12 [Example 104, (R,E)-N-(4-((4-([1,2,4]triazolo[1,5-a]pyridin-7-yloxy)-2-ethoxy-5-methylphenyl)amino)-7-methoxyquinazolin-6-yl)-2-fluoro-3-(1-methylpyrrolidin-2-yl)acrylamide]
≤ 50 nM	≤ 50 nM		COc1cc2ncnc(Nc3cc(C)c(Oc4ccn5ncnc5c4)cc3OC)c2cc1NC(=O)/C(F)=C\[C@H]1CCCN1 [Example 134, (R,E)-N-(4-((4-([1,2,4]triazolo[1,5-a]pyridin-7-yloxy)-2-methoxy-5-methylphenyl)amino)-7-methoxyquinazolin-6-yl)-2-fluoro-3-(pyrrolidin-2-yl)acrylamide]
≤ 50 nM	≤ 50 nM		COc1cc2ncnc(Nc3cc(C)c(Oc4ccn5ncnc5c4)cc3OC)c2cc1NC(=O)/C(Cl)=C\[C@H]1CCCN1C [Example 136, (R,E)-N-(4-((4-([1,2,4]triazolo[1,5-a]pyridin-7-yloxy)-2-methoxy-5-methylphenyl)amino)-7-methoxyquinazolin-6-yl)-2-chloro-3-(1-methylpyrrolidin-2-yl)acrylamide]

Source: patent publication US20240383923A1, “HETEROARYL DERIVATIVE AND USE THEREOF” (VORONOI INC., priority 2022, published 2024)
